# Patent publication US11414436B2, “Non-coordinating anion type activators containing cation having large alkyl groups” (ExxonMobil Chemical Patents Inc., priority 2018, dated 2022)
# “And” between values parts separate entries of the source, which are not always exact repeats. Equal values may be shown once.
# Assays:
# [1] = Solubility studies of the activators (saturated solution in isohexane or methylcyclohexane); assay type: physicochemical
# Method in brief: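 Solid activators stirred in excess with isohexane or methylcyclohexane for several hours at 25 °C, filtered, and a filtrate aliquot evaporated and weighed. Emulsion-forming activators titrated with solvent until homogeneous, with activator mass found gravimetrically. Saturated concentration given in mM.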
# [2] = RUN B: ethylene-octene polymerization in parallel pressure reactor, activator diluent toluene or methylcyclohexane; settings: ethylene-octene copolymerization; for activity: Cat 1 (MCN-1)
# Experimental: RUN B: Polymerization in Parallel Pressure Reactor.
# A series of ethylene-octene polymerizations were performed in the parallel pressure reactor according to the procedure described above. […] In a typical experiment an automated syringe was used to introduce into the reactor the following reagents, if utilized, in the following order: isohexane (0.35 mL), an isohexane solution of TNOAL scavenger (0.005 M, 60 μL), additional isohexane (0.35 mL), a toluene solution of the respective polymerization catalyst (150 μL, 0.4 mM, 20 nm [cat]/100 μL [toluene]), additional isohexane (0.35 mL), a toluene or methylcyclohexane solution of the respective activator (150 μL, 0.4 mM, (20 nm [act]/100 μL[ diluent])), then additional isohexane so that the total solvent volume for each run was 5 mL. Catalyst and activator were used in a 1:1 ratio. Each reaction was performed at a specified temperature range between 50 and 120° C., typically 95° C., while applying about 100 psig of ethylene (monomer) gas. Each reaction was allowed to run for about 1 hour (˜3600 seconds) or until approximately 20 psig of ethylene gas uptake was observed, at which point the reactions were quenched with air (˜300 psig). When sufficient polymer yield was attained (e.g., at least ˜10 mg), the polyethylene product was analyzed by Rapid GPC, described below.
# In a typical experiment, the anilinium borate activators were combined with toluene or methylcyclohexane as diluent and introduced to the parallel, pressure reactor via syringe. By this mechanism of activator introduction, only well dissolved activators could be delivered to the reactor providing a means to discriminate between the polymerization performance of long chain soluble anilinium borates vs. conventional anilinium borates. Following addition of activator, the catalyst Cat 1 was introduced, via syringe as well-dissolved toluene solution and the polymerization was conducted per the methodology described above.
Solubility limit in i-hexane (mM at 25° C.) ([1]; isohexane) [mM],Solubility limit in i-hexane (wt % at 25° C.) ([1]; isohexane) [wt %],Solubility limit in MeCy (mM at 25° C.) ([1]; methylcyclohexane) [mM],Compound,"quantity of polymer obtained with methylcyclohexane as diluent ([2]; Cat 1, activator in methylcyclohexane)",activity ([2]; activator diluent MeCy (methylcyclohexane)) [kg/mmol/h],"activity ([2]; activator diluent Toluene, listed as C2)"
120,29,160,"CCCCCCCCCCCCCCCCCC[NH+](CCCCCCCCCCCCCCCCCC)c1ccc(C)cc1.Fc1c(F)c(F)c2c(F)c([B-](c3c(F)c(F)c4c(F)c(F)c(F)c(F)c4c3F)(c3c(F)c(F)c4c(F)c(F)c(F)c(F)c4c3F)c3c(F)c(F)c4c(F)c(F)c(F)c(F)c4c3F)c(F)c(F)c2c1F [DOdTH-BF28, 4-methyl-N,N-dioctadecylbenzenaminium-BF28]",,,
,,,"N,N-dimethylanilinium tetrakis(heptafluoronaphthalen-2-yl)borate [DMAH-BF28, reference compound]",insufficient for analysis,0.0,441.3 kg/mmol/h and 392.4 kg/mmol/h and 390.1 kg/mmol/h and 408.1 kg/mmol/h
